According to patent US6518306B1, “1,4-substitued 4,4-diaryl cyclohexanes” (SmithKline Beecham Corporation, priority 1999, dated 2003):

System: TNF
Test: Endotoxic shock models, in vivo TNF activity
Details: endotoxic shock model; serum TNF after endotoxin injection
Text: Two models of endotoxic shock have been utilized to determine in vivo TNF activity for the compounds of Formula (I) and (II). The protocol used in these models is described in Badger et al., EPO published Application 0 411 754 A2, Feb. 6, 1991, and in Hanna. WO 90/15534, Dec. 27, 1990.

COc1ccc(C=O)cc1OC1CCCC1 [Example 1, 3-Cyclopentyloxy-4-methoxybenzaldehyde]
in vivo response in reducing serum levels of TNF induced by the injection of endotoxin: positive in vivo response
